Where two headings read alike, the source gives them in different places.
Assays:
[1] = target: T1, DHODH (Homo sapiens, UniProt Q02127); conditions: cited from earlier work; for Km: substrate/cosubstrate
Target sequence in this assay (Q02127 whole entry): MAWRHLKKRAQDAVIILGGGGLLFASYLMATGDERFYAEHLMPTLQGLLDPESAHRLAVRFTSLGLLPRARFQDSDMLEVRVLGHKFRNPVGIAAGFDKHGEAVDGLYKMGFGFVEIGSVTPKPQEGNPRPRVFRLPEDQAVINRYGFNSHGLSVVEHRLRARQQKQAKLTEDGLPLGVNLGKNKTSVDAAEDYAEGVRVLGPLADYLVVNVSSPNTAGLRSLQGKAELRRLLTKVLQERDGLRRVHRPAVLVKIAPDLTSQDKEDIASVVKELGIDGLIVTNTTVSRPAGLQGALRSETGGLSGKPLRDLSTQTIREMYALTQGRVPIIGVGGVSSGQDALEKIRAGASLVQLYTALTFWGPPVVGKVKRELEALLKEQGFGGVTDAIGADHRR

[2] = target: T1, DHODH; conditions: cited from earlier work
Target sequence in this assay (Q02127 whole entry, species assumed): as the sequence (Q02127 whole entry) above

[3] = daily dosage of 2-3 g MMF, adult transplant recipients; cited from earlier work
[4] = target: Bacillus subtilis IMPDH (Bacillus subtilis, UniProt P21879); conditions: Farazi et al. 1997; cited from earlier work
[5] = tested on: Jurkat T cells; test: Proliferation (3H-Tdr incorporation) of untransfected or mock-transfected Jurkat T cells; assay type: cell-based, human
Method: (§1) Jurkat T cells (Human CD4+ T cell line from American Type Culture Collection, ATCC Number: TIB-152) were passaged in T cell culture media containing 0, 100, 125, 150, 175, and 200 μg/ml hygromycin. Unless otherwise stated, T cell culture media was prepared by addition of 13.7 ml HEPES (Irvine Scientific catalog No. 9319), 5 ml L-Glutamine (BioWhittaker Catalog No. 17-605C) and 57 ml heat inactivated fetal calf serum (Hyclone catalog No. SH30070.03) to 500 ml RPMI 1640 medium without Phenol Red pH indicator (Irvine Scientific catalog No. 9160).
To assess proliferation by ^3H-Tdr incorporation, a volume of cell suspension containing 5×10^6 cells was diluted to 10 ml and incubated at 37° C. and 5% CO2. On days 8, 10, 12, and 15, volumes of cell suspension yielding 0.6×10^6 cells were placed in 15 ml conical tubes and centrifuged at 1100 rpm for 8 minutes at room temperature. Supernatant was removed and cells were resuspended in […] T cell media. Aliquots of 0.1 ml each were dispensed into wells of a 96 well round bottom plate. Six wells were used for each clone. ^3H-Tdr (ICN catalog No. 24041) was diluted 1:20 with T cell media. Each well was pulsed by adding 50 μl/well (lpCi ^3H-Tdr/well) dilute ^3H-Tdr and incubating for 4 hours. Wells were harvested onto filter paper using a PhD Cell Harvester and CPM were counted in a liquid scintillation counter by standard scintillation procedures.
(§2) The amount of cell proliferation and viability were measured by the methods described in Example 1 at 72, 96, and 144 hours thereafter. OKT3/rhlL-2-activated PBMCs from healthy donors were passaged under the above conditions, and the amount of cell proliferation measured at the same time intervals.
Jurkat T cells (ATCC Number: TIB-152) were grown in T cell culture media in log phase and then subjected to electroporation by the method described in Example 1 in the presence of plasmid DNA vector IMPDH(T333I/S351Y)/pMG as described above. As a control (“mock”), Jurkat T cells were mock-transfected by electroporation with plasmid-free buffer.
As a control, mock-transfected Jurkat T cells were passaged under the same conditions.
As a control, mock-transfected Jurkat T cells were cultured under the same conditions.

[6] = target: Tritrichomonas foetus IMPDH (Tritrichomonas foetus, UniProt P50097); conditions: Farazi et al. 1997; cited from earlier work
[7] = tested on: Jurkat T cells; test: Viability (Trypan Blue) of untransfected or mock-transfected Jurkat T cells; assay type: cell-based, human
Method: as §1
(§3) The viability of Jurkat T cells and PBMCs was determined using the Trypan Blue method for counting and calculating the number of live cells. […] Viable cells (unstained cells) and dead cells (blue stained cells) were counted in two diagonally opposite large corner squares of the hemacytometer and the total number of viable cells in the suspension and percentage of viable cells in the population were calculated. The total number of viable cells in the suspension was calculated by multiplying the mean number of cells counted per square by the dilution factor multiplied by 10^4. The percentage of viable cells in the population was calculated by dividing the total number of viable cells per ml by the total number of cells per ml multiplied by 100. […]

[8] = target: T2, IMPDH type II (Homo sapiens, UniProt P12268); conditions: cited from earlier work
[9] = tested on: OKT3/rhIL-2-activated PBMCs; test: Proliferation (3H-Tdr incorporation) of OKT3/rhIL-2-activated PBMCs; assay type: cell-based, human; conditions: MPA 1×10^−7M to 1×10^−4M, 72, 96, 144 hours
Method: (§4) Five hundred million freshly isolated, healthy donor peripheral blood mononuclear cells (PBMCs) were diluted to a volume of 500 ml with T cell culture media. PBMCs were activated with 15 λ anti-CD3 monoclonal antibody Orthoclone OKT3 (Ortho Biotech Inc.). Ten 50 ml aliquots of PBMC/OKT3 were placed in separate flasks. To each PBMC/OKT3 flask, 50 μL of stock 50 U/μl recombinant human IL-2 (Chiron catalog No. 53905-991-01) was added to stimulate proliferation. OKT3/rhIL-2-activated PBMCs were passaged under the same conditions as described for the Jurkat T cells. The amount of Jurkat T cell and PBMC proliferation was determined by measuring DNA incorporation of ^3H-Tdr 8, 10, 12, and 15 days thereafter.
To assess proliferation by ^3H-Tdr incorporation, a volume of cell suspension containing 5×10^6 cells was diluted to 10 ml and incubated at 37° C. and 5% CO2. […] Wells were harvested onto filter paper using a PhD Cell Harvester and CPM were counted in a liquid scintillation counter by standard scintillation procedures.
as §2

[10] = tested on: OKT3/rhIL-2-activated PBMCs; test: Viability (Trypan Blue) of OKT3/rhIL-2-activated PBMCs; assay type: cell-based, human; conditions: MPA 1×10^−7M to 1×10^−4M, 72, 96, 144 hours
Method: as §4
as §3, with “10^4.” for “10^4. The percentage of viable cells in the population was calculated by dividing the total number of viable cells per ml by the total number of cells per ml multiplied by 100.”

[11] = tested on: Jurkat T cells transfected with plasmid IMPDH(T333I/S351Y)/pMG; test: Viability (Trypan Blue) of Jurkat T cells transfected with IMPDH(T333I/S351Y)/pMG; assay type: cell-based, human; conditions: hygromycin-resistant transfectants
[12] = tested on: Jurkat T cells transfected with plasmid IMPDH(T333I/S351Y)/pMG; test: Proliferation (3H-Tdr incorporation) of Jurkat T cells transfected with IMPDH(T333I/S351Y)/pMG; assay type: cell-based, human
[13] = target: Escherichia coli IMPDH (Escherichia coli, UniProt P0ADG7); conditions: Farazi et al. 1997; cited from earlier work
[14] = target: type I IMPDH (Homo sapiens, UniProt P20839); conditions: cited from earlier work; for Ki: product inhibition
[15] = target: type II IMPDH (Homo sapiens, UniProt P12268); conditions: cited from earlier work; for Ki: product inhibition
[16] = target: IMPDH; conditions: competition for NAD+ cofactor-binding site; Yamada et al. 1989; read-out: Ki against NAD; cited from earlier work
[17] = target: T2, IMPDH type II; conditions: uncompetitive inhibitor; read-out: Ki against type II; cited from earlier work
[18] = tested on: B cell and T cell proliferation; conditions: cited from earlier work
[19] = target: IMPDH type I (Homo sapiens, UniProt P20839); conditions: uncompetitive inhibitor; read-out: Ki against type I; cited from earlier work
[20] = human DHODH, read-out: Ki, uncompetitive with respect to dihydroorotate
[21] = Jurkat, MPA 1×10^−7M to 1×10^−4M, 72, 96, 144 hours

Chain of type I IMPDH (P20839 whole entry): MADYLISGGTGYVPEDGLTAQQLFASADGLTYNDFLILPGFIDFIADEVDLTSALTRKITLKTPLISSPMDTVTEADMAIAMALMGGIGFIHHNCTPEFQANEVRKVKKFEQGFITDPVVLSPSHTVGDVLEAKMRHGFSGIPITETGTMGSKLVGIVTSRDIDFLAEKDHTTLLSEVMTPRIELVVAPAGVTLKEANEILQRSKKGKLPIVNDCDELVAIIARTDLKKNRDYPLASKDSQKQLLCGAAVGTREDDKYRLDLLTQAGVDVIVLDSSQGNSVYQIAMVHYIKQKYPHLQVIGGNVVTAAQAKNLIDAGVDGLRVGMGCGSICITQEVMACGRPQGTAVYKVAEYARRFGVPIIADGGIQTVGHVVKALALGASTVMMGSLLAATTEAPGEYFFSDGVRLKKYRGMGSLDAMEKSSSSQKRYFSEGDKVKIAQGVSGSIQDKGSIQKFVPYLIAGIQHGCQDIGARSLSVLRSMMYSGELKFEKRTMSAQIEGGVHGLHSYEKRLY
Chain of Tritrichomonas foetus IMPDH (P50097 whole entry): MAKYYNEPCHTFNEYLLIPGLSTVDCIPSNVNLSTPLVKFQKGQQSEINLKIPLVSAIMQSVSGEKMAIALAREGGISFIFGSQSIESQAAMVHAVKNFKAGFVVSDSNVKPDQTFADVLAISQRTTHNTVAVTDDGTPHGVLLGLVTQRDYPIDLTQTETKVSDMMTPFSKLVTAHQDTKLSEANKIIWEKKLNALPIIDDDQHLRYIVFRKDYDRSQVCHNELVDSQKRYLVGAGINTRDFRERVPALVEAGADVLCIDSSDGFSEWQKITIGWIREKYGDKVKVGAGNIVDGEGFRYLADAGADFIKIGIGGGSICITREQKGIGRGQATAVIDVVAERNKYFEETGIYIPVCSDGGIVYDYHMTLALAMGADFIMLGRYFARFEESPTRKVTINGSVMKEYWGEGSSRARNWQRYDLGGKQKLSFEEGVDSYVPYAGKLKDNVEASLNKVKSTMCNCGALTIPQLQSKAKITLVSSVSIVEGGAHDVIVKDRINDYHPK
Chain of Bacillus subtilis IMPDH (P21879 whole entry): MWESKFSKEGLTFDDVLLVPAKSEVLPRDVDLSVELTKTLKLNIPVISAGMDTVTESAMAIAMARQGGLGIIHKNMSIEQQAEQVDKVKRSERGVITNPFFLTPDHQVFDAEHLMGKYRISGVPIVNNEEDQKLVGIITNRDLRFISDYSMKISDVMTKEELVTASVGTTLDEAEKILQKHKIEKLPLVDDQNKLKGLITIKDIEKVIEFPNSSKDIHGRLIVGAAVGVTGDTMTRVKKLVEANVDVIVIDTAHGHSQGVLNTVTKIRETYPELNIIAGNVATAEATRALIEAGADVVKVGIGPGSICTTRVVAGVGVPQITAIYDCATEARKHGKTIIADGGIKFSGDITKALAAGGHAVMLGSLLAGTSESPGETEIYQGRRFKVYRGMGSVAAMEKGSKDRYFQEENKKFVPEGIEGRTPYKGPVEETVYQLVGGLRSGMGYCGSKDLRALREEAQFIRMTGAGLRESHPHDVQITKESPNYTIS
Chain of IMPDH type I (P20839 whole entry): as the sequence (P20839 whole entry) above
Chain of Escherichia coli IMPDH (P0ADG7 whole entry): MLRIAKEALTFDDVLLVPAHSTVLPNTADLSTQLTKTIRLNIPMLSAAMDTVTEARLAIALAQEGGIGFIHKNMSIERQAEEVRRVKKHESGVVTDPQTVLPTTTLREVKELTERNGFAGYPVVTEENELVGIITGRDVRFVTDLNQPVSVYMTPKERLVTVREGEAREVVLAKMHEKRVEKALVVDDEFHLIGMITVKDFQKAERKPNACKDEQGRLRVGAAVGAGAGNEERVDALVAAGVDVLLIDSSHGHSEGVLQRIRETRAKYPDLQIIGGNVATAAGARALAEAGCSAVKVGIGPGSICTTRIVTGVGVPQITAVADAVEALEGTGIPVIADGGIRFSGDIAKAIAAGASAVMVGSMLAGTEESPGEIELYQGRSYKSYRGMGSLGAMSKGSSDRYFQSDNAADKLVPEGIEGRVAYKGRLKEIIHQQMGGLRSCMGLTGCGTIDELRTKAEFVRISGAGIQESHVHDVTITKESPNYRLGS

## O=C1C(O)=C([C@H]2CC[C@H](c3ccc(Cl)cc3)CC2)C(=O)c2ccccc21 [Atovaquone]
[1]; [20]
  Ki: 11.5 µM

## Cc1nc2c(n1-c1ccc(Br)cc1)C(=O)c1ccccc1C2=O [BNID, 1-(p-bromophenyl)-2-methyl 1H-napth(2,3-d)-imidazole-4,9-dione]
[2]
  Ki: 0.53 µM

## O=C1C(O)=C(CC=C(Cl)Cl)C(=O)c2ccccc21 [DCL, dichloroallyl lawsone]
[1]; human DHODH, read-out: Ki, competitive with respect to ubiquinone
  Ki: 0.0098 µM
[1]; [20]
  Ki: 0.038 µM

## COc1c(C)c2c(c(O)c1C/C=C(\C)CCC(=O)OCCN1CCOCC1)C(=O)OC2 [MMF, Mycophenolate mofetil]
[3]
  therapeutically relevant blood trough levels: 1 to 5 µg/mL

## COc1c(C)c2c(c(O)c1C/C=C(\C)CCC(=O)O)C(=O)OC2 [MPA, Mycophenolic acid]
[4]
  Ki: 0.5 µM
[5]; [21]
  proliferation vs. absence of MPA: significantly reduced
[5]; control Jurkat, MPA 1×10^−6M to 2×10^−5M
  proliferation in presence of mycophenolic acid: essentially completely inhibited
[5]; mock-transfected Jurkat, MPA 2×10^−7M to 2×10^−5M
  proliferation in medium containing mycophenolic acid: did not proliferate
[5]; mock-transfected Jurkat, mycophenolic acid 2×10^−7 M and greater
  3H-Tdr incorporation, % of media control: less than 3%
[6]
  Ki: 14 µM
[7]; [21]
  viability vs. absence of MPA: significantly reduced
[7]; mock-transfected Jurkat, by 36 days
  viable cells in medium containing mycophenolic acid: no viable cells were detected
[8]
  higher binding affinity for human IMPDH type II over human IMPDH type I: approximately 5 fold
[9]
  proliferation vs. absence of MPA: significantly reduced by MPA at all concentrations, except the lowest concentration
[10]
  viability vs. absence of MPA: significantly reduced by MPA at all concentrations, except the lowest concentration
[11]; higher concentrations of mycophenolic acid
  viability at day 21 post-transfer compared to day 0: somewhat less viable
[11]; lower concentrations of mycophenolic acid
  viability at day 21 post-transfer: more viable at day 21 post-transfer than those cultured in medium containing higher concentrations of mycophenolic acid
[12]; five of the ten MPA-resistant clones, MPA 1×10^−6M or less
  maximum 3H-Tdr incorporation maintained: greater than 50%
[12]; hygromycin-resistant transfectants, 2×10^−6M to 2×10^−7M MPA
  proliferation, % of the maximum proliferation in the absence of MPA: 20-92%
[12]; limiting dilution in 3×10^−6 M mycophenolic acid, 21 days after transfection, 10^4 cells per well
  transfectant cells demonstrating proliferation: Approximately 10%
[13]
  Ki: 20 µM

## NC(=O)C1=CN([C@@H]2O[C@H](COP(=O)(O)OP(=O)(O)OC[C@H]3O[C@@H](n4cnc5c(N)ncnc54)[C@H](O)[C@@H]3O)[C@@H](O)[C@H]2O)C=CC1 [NADH]
[14]
  Ki: ~102 µM
[15]
  Ki: ~90 µM

## NC(=O)c1ccc[n+]([C@@H]2O[C@H](COP(=O)([O-])OP(=O)(O)OC[C@H]3O[C@@H](n4cnc5c(N)ncnc54)[C@H](O)[C@@H]3O)[C@@H](O)[C@H]2O)c1 [NAD]
[14]; substrate/cofactor
  Km: ~46 µM
[15]; substrate/cofactor
  Km: ~32 µM

## CC(=O)N1CCc2c([nH]c3ccc(Br)cc23)C1c1ccccc1 (stereo not shown) [NSC 665564]
[2]
  IC50 compared with Brequinar: comparable IC50 to Brequinar
  Ki compared with Brequinar: lower Ki

## O=C(O)c1cc(=O)[nH]c(=O)[nH]1 [Orotate]
[1]; competitive with respect to dihydroorotate, read-out: Kis (slope inhibition constant)
  Ki: 22 ± 3 µM
[1]; uncompetitive with respect to quinone, read-out: Kij (intercept inhibition constant)
  Ki: 60 ± 10 µM

## COc1cc(-c2ccc(Nc3ccccc3C(=O)O)c(OC)c2)ccc1Nc1ccccc1C(=O)O [Redoxal]
[1]; non-competitive for dihydroorotate and ubiquinone, read-out: apparent Ki
  Ki: 0.33 µM

## NC(=O)c1csc(C2O[C@@H](COP(=O)(O)OP(=O)(O)OC[C@H]3OC(n4cnc5c(N)ncnc54)[C@H](O)[C@@H]3O)[C@H](O)[C@@H]2O)n1 (stereo partly shown) [TAD, thiazole-4-carboxamide adenine dinucleotide]
[16]
  Ki: 0.075 µM

## COc1cc(NC(=O)Nc2cccc(CNC(=O)O[C@H]3CCOC3)c2)ccc1-c1cnco1 [VX-497]
[17]
  Ki: 0.01 µM
[18]
  IC50: ~0.1 µM
[19]
  Ki: 0.007 µM

## CCCCCCCCCCC1=C(C)C(=O)C(OC)=C(OC)C1=O [decylubiqunone]
[1]; human DHODH
  Km: ~13.7 µM

## O=C1CC(C(=O)O)NC(=O)N1 (stereo not shown) [dihydroorotate]
[1]; human DHODH
  Km: ~9.4 µM

## COC1=C(OC)C(=O)C(C/C=C(\C)CC/C=C(\C)CC/C=C(\C)CC/C=C(\C)CC/C=C(\C)CC/C=C(\C)CC/C=C(\C)CC/C=C(\C)CC/C=C(\C)CCC=C(C)C)=C(C)C1=O [ubiquinone]
[1]; human DHODH
  Km: ~110 µM

## xanthine monophosphate [XMP]
[14]
  Ki: ~80 µM
[15]
  Ki: ~94 µM

Reference: US20030166201A1, “Selection systems for genetically modified cells” (priority 2001, published 2003)
